For orientation: IC50 means the concentration at which inhibition is half-maximal.

Among the data in patent US20250361241A1, “HPK1 INHIBITOR AND MEDICAL USE THEREOF” (Betta Pharmaceuticals Co., Ltd., priority 2022, published 2025) are IC50 values, retold here.

For one assay, the target named is GLK (Homo sapiens (Human), UniProt Q8IVH8). Kind of assay: GLK kinase assay (1 mM ATP system), ADP-Glo. It is filed as biochemical. On the procedure:
Solution […] The test compound was serially diluted using DMSO to 200 times the detection concentration. […] Centrifuge at 1000×g for 30 seconds and incubate at 25° C. for 15 minutes. • (5) Add ATP and substrate: Add 2 μL of 2×ATP-MBP solution to the 384-well plate and centrifuge at 1000×g for 30 seconds. Seal the plate with a sealing film and incubate at 25° C. for 60 minutes. • (6) Add ADP-Glo reagent: Add 4 μL ADP-Glo reagent (Promega, V9103) to the 384-well plate, centrifuge at 1000×g for 30 seconds, and incubate at 25° C. for 60 minutes. • (7) Detection of luminescent signal: Add 8 μL of luminescent detection reagent (Promega, V9103) to a 384-well plate, centrifuge at 1000×g for 30 seconds, and incubate at 25° C. for 60 minutes. The chemiluminescent signal was read using a BMG microplate reader. • (8) Calculation of percentage inhibition rate: […] See Table 2 for the GLK kinase IC50 data of the example compounds on […].

The target of the next assay is HPK1 (Homo sapiens (Human), UniProt Q92918). Kind of assay: HPK1 enzyme activity detection (1 mM ATP system), ADP-Glo with MBP substrate, Pharmacological Experiment 2. It is filed as biochemical. On the procedure: Pharmacological Experiment 2: […] The test compound was serially diluted using DMSO to 200 times the detection concentration. […] Centrifuge at 1000×g for 30 seconds and incubate at 25° C. for 15 minutes. • (5) Adding ATP and substrate: Add 2 μL of 2×ATP-MBP solution to the 384-well plate and centrifuge at 1000×g for 30 seconds. Seal the plate with a sealing film and incubate at 25° C. for 60 minutes. • (6) Add ADP-Glo reagent: Add 4 μL ADP-Glo reagent (Promega, V9103) to the 384-well plate, centrifuge at 1000×g for 30 seconds, and incubate at 25° C. for 60 minutes. • (7) Detection of luminescent signal; Add 8 μL of luminescent detection reagent (Promega, V9103) to a 384-well plate, centrifuge at 1000×g for 30 seconds, and incubate at 25° C. for 60 minutes. The chemiluminescent signal was read using a BMG instrument. • (8) Calculation of percentage inhibition rate: […] See Table 2 for the enzymatic IC 50 data of the example compounds on HPK1.
On the technique in general: In ADP-Glo the light output rises with the ADP produced.

Chain of GLK (Q8IVH8 whole entry, species assumed): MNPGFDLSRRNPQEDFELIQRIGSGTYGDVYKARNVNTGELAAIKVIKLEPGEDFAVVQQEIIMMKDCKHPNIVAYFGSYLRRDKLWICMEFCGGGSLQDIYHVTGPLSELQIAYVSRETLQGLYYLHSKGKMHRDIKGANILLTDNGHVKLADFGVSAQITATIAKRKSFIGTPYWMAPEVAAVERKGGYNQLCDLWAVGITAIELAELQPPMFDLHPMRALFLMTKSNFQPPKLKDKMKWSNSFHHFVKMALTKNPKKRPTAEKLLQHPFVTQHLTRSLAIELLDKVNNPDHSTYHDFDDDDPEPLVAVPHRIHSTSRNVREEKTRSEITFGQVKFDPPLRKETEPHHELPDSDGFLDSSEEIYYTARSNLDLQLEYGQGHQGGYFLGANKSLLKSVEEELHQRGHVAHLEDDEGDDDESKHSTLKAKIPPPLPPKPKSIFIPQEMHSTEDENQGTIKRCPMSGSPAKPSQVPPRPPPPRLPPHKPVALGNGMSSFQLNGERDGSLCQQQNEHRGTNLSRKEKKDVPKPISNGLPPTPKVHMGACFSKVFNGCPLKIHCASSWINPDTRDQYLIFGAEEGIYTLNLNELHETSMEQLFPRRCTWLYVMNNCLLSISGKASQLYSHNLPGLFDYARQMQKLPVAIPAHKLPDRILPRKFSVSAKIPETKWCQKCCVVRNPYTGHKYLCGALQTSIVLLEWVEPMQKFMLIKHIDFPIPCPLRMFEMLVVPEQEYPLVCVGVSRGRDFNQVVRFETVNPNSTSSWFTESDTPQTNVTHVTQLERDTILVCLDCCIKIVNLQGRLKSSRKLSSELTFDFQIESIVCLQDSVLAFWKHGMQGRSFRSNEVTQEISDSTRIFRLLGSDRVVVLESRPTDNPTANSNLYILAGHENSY
Chain of HPK1 (Q92918 whole entry, species assumed): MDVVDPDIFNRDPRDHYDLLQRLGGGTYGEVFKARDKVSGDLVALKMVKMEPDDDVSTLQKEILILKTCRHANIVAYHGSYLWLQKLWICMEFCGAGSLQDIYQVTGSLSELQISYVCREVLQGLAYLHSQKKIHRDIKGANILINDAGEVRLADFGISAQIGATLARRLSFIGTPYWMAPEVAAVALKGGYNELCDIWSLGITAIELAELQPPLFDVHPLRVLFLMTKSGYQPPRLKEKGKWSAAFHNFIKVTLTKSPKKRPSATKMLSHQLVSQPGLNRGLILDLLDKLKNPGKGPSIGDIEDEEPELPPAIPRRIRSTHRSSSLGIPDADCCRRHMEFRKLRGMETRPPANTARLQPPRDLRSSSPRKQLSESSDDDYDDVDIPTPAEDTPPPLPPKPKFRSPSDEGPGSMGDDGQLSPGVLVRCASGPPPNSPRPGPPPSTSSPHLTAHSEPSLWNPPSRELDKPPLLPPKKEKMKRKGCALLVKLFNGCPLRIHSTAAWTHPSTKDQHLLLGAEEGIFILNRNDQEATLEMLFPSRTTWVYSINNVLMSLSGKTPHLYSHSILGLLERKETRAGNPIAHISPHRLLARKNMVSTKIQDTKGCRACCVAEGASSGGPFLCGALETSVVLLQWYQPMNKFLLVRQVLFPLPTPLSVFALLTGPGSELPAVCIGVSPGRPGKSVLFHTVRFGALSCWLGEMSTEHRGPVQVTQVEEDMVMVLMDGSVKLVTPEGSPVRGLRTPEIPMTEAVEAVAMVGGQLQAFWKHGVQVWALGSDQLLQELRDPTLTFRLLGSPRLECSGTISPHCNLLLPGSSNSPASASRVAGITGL

As to `CNC1CC2(CCOCC2)c2ccc(Nc3ccc(-c4cnc5cc(F)ccn45)c4c3C(=O)NC4)nc21` (stereo not shown) [Compound 60, 4-(7-FLUOROIMIDAZO[1,2-A]PYRIDIN-3-YL)-7-((7-(METHYLAMINO)-2′,3′,5′,6,6′,7-HEXAHYDROSPIRO[B]PYRIDIN-5,4′-PYRAN]-2-YL)AMINO)ISOINDOL-1-ONE], the IC50 against GLK was 123 nM; against HPK1, 2.14 nM.
For `CN(C1CC1)C1CC2(CCOCC2)c2ccc(Nc3ccc(-c4cnc5cc(F)ccn45)c4c3C(=O)NC4)nc21` (stereo not shown) [Compound 61, 7-((7-(CYCLOPROPYL(METHYL)AMINO)-2′,3′,5′,6,6′,7-HEXAHYDROSPIRO[CYCLOPENTYL[B]PYRIDINE-5,4′-PYRAN]-2-YL)AMINO)-4-(7-FLUOROIMIDAZOLE[1,2-A]PYRIDIN-3-YL)ISOINDOL-1-ONE], the values for the IC50 at GLK and on HPK1 were more than 30000 nM and 7.7 nM, respectively.
`O=C1NCc2c(-c3cnc4cc(F)ccn34)ccc(Nc3ccc4c(n3)C(N3CC(F)C3)CC43CCOCC3)c21` (stereo not shown) [Compound 67, 7-(7-(3-FLUOROAZETIDINE-1-YL)-2′,3′,5′,6,6′,7-HEXAHYDROSPIRO[B]PYRIDINE-5,4′-PYRAN]-2-YL)AMINO)-4-(7-FLUOROIMIDAZO[1,2-A]PYRIDIN-3-YL)ISOINDOLIN-1-ONE]: the IC50 on GLK was determined as 136 nM; against HPK1, 2.49 nM.
For `COC1(C)CN(C2CC3(CCOCC3)c3ccc(Nc4ccc(-c5cnc6cc(F)ccn56)c5c4C(=O)NC5)nc32)C1` (stereo not shown) [Compound 70], the results for the IC50 on GLK and against HPK1 were 188 nM and 2.99 nM, respectively.
`CO[C@@H]1CCN(C2CC3(CCOCC3)c3ccc(Nc4ccc(-c5cnc6cc(F)ccn56)c5c4C(=O)NC5)nc32)C1` (stereo partly shown) [Compound 73]: the IC50 at GLK amounted to 206 nM; against HPK1, 3.48 nM.
With `O=C1NCc2c(-c3cnc4cc(F)ccn34)ccc(Nc3ccc4c(n3)C(N3CC[C@H](F)C3)CC43CCOCC3)c21` (stereo partly shown) [Compound 74], the IC50 was 299 nM against GLK and 3.02 nM at HPK1.
With `CO[C@H]1CCN(C2CC3(CCOCC3)c3ccc(Nc4ccc(-c5cnc6cc(F)ccn56)c5c4C(=O)NC5)nc32)C1` (stereo partly shown) [Compound 76], the IC50 came to 286 nM against GLK and 3.55 nM on HPK1.
In the case of `CC(C)N(C)C1CC2(CCOCC2)c2ccc(Nc3ccc(-c4cnc5cc(F)ccn45)c4c3C(=O)NC4)nc21` (stereo not shown) [Compound 85, 4-(7-FLUOROIMIDAZO[1,2-A]PYRIDIN-3-YL)-7-((7-(ISOPROPYL(METHYL)AMINO)-2′,3′,5′,6,6′,7-HEXAHYDRO SPIRO[CYCLOPENTYL[B]PYRIDIN-5,4′-PYRAN]-2-YL)AMINO)ISOINDOL-1-ONE], the IC50 against GLK came out at 831 nM; on HPK1, 5.19 nM.
Regarding `CN(C)C1COC2(CCOCC2)c2ccc(Nc3ccc(-c4cnc5cc(Cl)ccn45)c4c3C(=O)NC4)nc21` (stereo not shown) [Compound 86], the IC50 against GLK was 158 nM; on HPK1, 2.61 nM.
In the case of `O=C1NCc2c(-c3cnc4cc(F)ccn34)ccc(Nc3ccc4c(n3)C(N3CC5(COC5)C3)CC43CCOCC3)c21` (stereo not shown) [Compound 88], the results for the IC50 against GLK and against HPK1 were 208 nM and 5.29 nM, respectively.
For `O=C1NCc2c(-c3cnc4cc(F)ccn34)ccc(Nc3ccc4c(n3)C(N3CCCCC3)CC43CCOCC3)c21` (stereo not shown) [Compound 90], in that order: 598 nM and 5.58 nM.
On to `CN1CCN(C2CC3(CCOCC3)c3ccc(Nc4ccc(-c5cnc6cc(F)ccn56)c5c4C(=O)NC5)nc32)CC1` (stereo not shown) [Compound 91], for which the results for the IC50 against GLK and on HPK1 were more than 30000 nM and 86.2 nM, respectively.
For `CN(C1CCOCC1)C1CC2(CCOCC2)c2ccc(Nc3ccc(-c4cnc5cc(F)ccn45)c4c3C(=O)NC4)nc21` (stereo not shown) [Compound 93], in that order: more than 25000 nM and 27 nM.
Regarding `COC1(C)CCN(C2CC3(CCOCC3)c3ccc(Nc4ccc(-c5cnc6cc(F)ccn56)c5c4C(=O)NC5)nc32)CC1` (stereo not shown) [Compound 94], the IC50 at GLK came out at 4530 nM; against HPK1 it was 9.27 nM.
Take `O=C1NCc2c(-c3cnc4cc(F)ccn34)ccc(Nc3ccc4c(n3)C(N3CCC(F)(F)CC3)CC43CCOCC3)c21` (stereo not shown) [Compound 98]: the IC50 against GLK is more than 30000 nM; at HPK1, 12.4 nM.
Consider `CC(C)(C)NC1CC2(CCOCC2)c2ccc(Nc3ccc(-c4cnc5cc(F)ccn45)c4c3C(=O)NC4)nc21` (stereo not shown) [Compound 101], for which the IC50 at GLK was 858 nM; against HPK1 it was 5.22 nM.
Consider `CC(C)NC1CC2(CCOCC2)c2ccc(Nc3ccc(-c4cnc5cc(F)ccn45)c4c3C(=O)NC4)nc21` (stereo not shown) [Compound 102], for which the figures for the IC50 on GLK and on HPK1 were more than 30000 nM and 7.42 nM, respectively.
Turning to `COCCNC1CC2(CCOCC2)c2ccc(Nc3ccc(-c4cnc5cc(F)ccn45)c4c3C(=O)NC4)nc21` (stereo not shown) [Compound 106], the IC50 at GLK came to 697 nM; on HPK1 it was 3.46 nM.
For `O=C1NCc2c(-c3cnc4cc(F)ccn34)ccc(Nc3ccc4c(n3)C(NC3CCCC3)CC43CCOCC3)c21` (stereo not shown) [Compound 109], in that order: 791 nM and 5.97 nM.
Take `O=C1NCc2c(-c3cnc4cc(F)ccn34)ccc(Nc3ccc4c(n3)C(N3C[C@H]5C[C@@H]3CO5)CC43CCOCC3)c21` (stereo partly shown) [Compound 110]: the IC50 on GLK amounted to 317 nM; at HPK1, 2.67 nM.
Take `O=C1NCc2c(-c3cnc4cc(F)ccn34)ccc(Nc3ccc4c(n3)C(NCC3CC3)CC43CCOCC3)c21` (stereo not shown) [Compound 117]: the values for the IC50 at GLK and on HPK1 were 562 nM and 5.04 nM, respectively.
As to `CC(C)N1Cc2nc(Nc3ccc(-c4cnc5cc(F)ccn45)c4c3C(=O)NC4)ccc2C2(CCOCC2)C1` [Compound 119], the values for the half-maximal inhibitory concentration (IC50) on GLK and at HPK1 were more than 3000 nM and 29.8 nM, respectively.
For the molecule `O=C1NCc2c(-c3cnc4cc(F)ccn34)ccc(Nc3ccc4c(n3)CN(CC3CC3)CC43CCOCC3)c21` [Compound 120], the IC50 at GLK was more than 3000 nM; on HPK1 it was 11 nM.
Take `CCN1Cc2nc(Nc3ccc(-c4cnc5cc(F)ccn45)c4c3C(=O)NC4)ccc2C2(CCOCC2)C1` [Compound 124]: the figures for the IC50 against GLK and against HPK1 were 2760 nM and 8.47 nM, respectively.
As for `O=C1NCc2c(-c3cnc4cc(F)ccn34)ccc(Nc3ccc4c(n3)C(N3CCC(F)CC3)CC43CCOCC3)c21` (stereo not shown) [Compound 144], the values for the IC50 on GLK and on HPK1 were more than 3000 nM and 7.42 nM, respectively.
Take `N#Cc1ccn2c(-c3ccc(Nc4ccc5c(n4)CCCC54CCOCC4)c4c3CNC4=O)cnc2c1` [Compound 146, 3-(7-((2,3,5,6,7′,8′-HEXAHYDRO-6′-H-SPIRO[PYRAN-4,5′-[1,7]NAPHTHYRIDINE]-2′-YL)AMINO)-1-OXOISOINDOL-4-YL)IMIDAZO[1,2-A]PYRIDINE-7-CARBONITRILE]: the 50% inhibitory concentration (IC50) against GLK worked out at 1230 nM; against HPK1 it was 4.33 nM.
On to `O=C1NCc2c(-c3cnc4n3CCOC4)ccc(Nc3ccc4c(n3)CNCC43CCOCC3)c21` [Compound 153], for which the IC50 is 2170 nM at GLK and 34.5 nM on HPK1.
Turning to `O=C1NCc2c(-c3cnn4c3CCCC4)ccc(Nc3ccc4c(n3)CNCC43CCOCC3)c21` [Compound 154], the IC50 against GLK turned out to be 646 nM; at HPK1 it was 10.9 nM.
Turning to `CN(C)C1CC2(CCOCC2)c2ccc(Nc3ccc(-c4cnc5cc(C#N)ccn45)c4c3C(=O)NC4)nc21` (stereo not shown) [Compound 157, 3-(7-((7-(DIMETHYLAMINO)-2′,3′,5′,6,6′,7-HEXAHYDROSPIRO]CYCLOPENTANE[B]PYRIDINE-5,4′-PYRAN]-2-YL)AMINO)-1-OXOISOINDOL-4-YL)IMIDAZO[1,2-A]PYRIDINE-7-CARBONITRILE], the IC50 is 877 nM against GLK and 5.9 nM against HPK1.
Taken in the same sequence, the figures for `CN(C)C1CC2(CCOCC2)c2ccc(Nc3ccc(-c4cnc5cc(C(F)F)ccn45)c4c3C(=O)NC4)nc21` (stereo not shown) [Compound 160, 4-(7-(DIFLUOROMETHYL)IMIDAZO[1,2-A]PYRIDIN-3-YL)-7-((7-(METHYLAMINO)-2′,3′,5′,6,6′,7-HEXAHYDRO SPIRO[CYCLOPENTANE[B]PYRIDINE-5,4′-PYRAN]-2-YL)AMINO)ISOINDOL-1-ONE] were 460 nM and 6.57 nM.
Taken in the same sequence, the figures for `CN(C)C1CC2(CCOCC2)c2ccc(Nc3ccc(-c4cnc5n4CCOC5)c4c3C(=O)NC4)nc21` (stereo not shown) [Compound 165, 4-(5,6-DIHYDRO-8H-IMIDAZO[2,1-C][1,4]OXAZIN-3-YL)-7-((7-(DIMETHYLAMINO)-2′,3′,5′,6,6′,7-HEXAHYDROSPIRO[CYCLOPENTA[B]PYRIDINE-5,4′-PYRAN]-2-YL)AMINO)ISOINDOL-1-ONE] were 1190 nM and 24.9 nM.
Consider `O=C1NCc2c(-c3cnc4n3CCCC4)ccc(Nc3ccc4c(n3)CCCC43CCOCC3)c21` [Compound 167], for which the IC50 against GLK was 1370 nM; against HPK1, 25.3 nM.
